The first series can be described thus: in vitro. The note with it: human, hela cells, % viability.
Consider `Fc1cc(Br)ccc1-c1cn(-c2ccc3[nH]ccc3c2)nn1` [CBK113146], for which the viability – broadly, a read-out of living cells in per cent, often relative to untreated cells – at 28.5 h, 10 µM amounted to 91.2%.

Take `CCOC(=O)c1cc2c(=O)n3cc(C)ccc3nc2n(Cc2cccnc2)c1=N` [CBK263095]: the viability at 28.5 h, 10 µM amounted to 90.5%.

Consider `O=C(CSc1nnc2ccc(-c3ccccc3)nn12)NCc1ccccc1` [CBK287677], for which the viability at 28.5 h, 10 µM is 67.6%.

On to `Cc1ccccc1C(=O)NC(=S)NCCN1CCOCC1` [CBK288475], for which the viability at 28.5 h, 10 µM was found to be 94.5%.

For `COc1cc(/C=N/c2cccc3c(/N=C/c4ccc(O)c(OC)c4)cccc23)ccc1O` [CBK261224], the viability at 28.5 h, 10 µM was 85.8%.

Regarding `CC(=O)c1ccc(-c2cc(C(=O)Nc3ccc4c(c3)OCCO4)cnc2-c2ccc(Cl)cc2)s1` [CBK036627], the viability at 28.5 h, 10 µM was 105%.

`CC(=O)NC(=NOCc1ccc(Br)cc1)c1nonc1NC(C)=O` [CBK265342]: the viability at 28.5 h, 10 µM was found to be 87.8%.

Regarding `Oc1cccc2c1CC(NCC(F)(F)C(F)(F)F)CC2` (stereo not shown) [CBK007596], the viability at 28.5 h, 10 µM stood at 96.5%.

As for `CCN(CC)CCCNC(=O)N1CCCCC1CO` (stereo not shown) [CBK155982], the viability at 28.5 h, 10 µM stood at 97.9%.

As to `COc1ccc(/N=C2\S[C@H]3[C@H]([C@@H](O)[C@H](O)C[C@@H]3C(N)=O)N2Cc2ccc(F)cc2)cc1` [CBK288942], the viability at 28.5 h, 10 µM was 90.5%.

For the compound `COc1ccc(N2CCN(c3cc(-c4ccc(CCC(=O)O)cc4)ncn3)CC2)cc1OC` [CBK091030], the viability at 28.5 h, 10 µM turned out to be 94.1%.

With `CCC(=O)NNC(=O)c1cc(O)nc2ccccc12` [CBK263495], the viability at 28.5 h, 10 µM came out at 98.1%.

For `Cc1nn(C)c(C)c1NC(=O)c1ncoc1-c1ccc(F)cc1` [CBK282359], the viability at 28.5 h, 10 µM came out at 87.7%.

`Cc1cc(N(C)CCc2ccccc2)nc2cc(Cl)ccc12` [CBK262221]: the viability at 28.5 h, 10 µM is 93.9%.

Take `CC1CCCCN1Cc1nc2c(c(=O)n(C)c(=O)n2C)n1Cc1ccccc1` (stereo not shown) [CBK269203]: the viability at 28.5 h, 10 µM was 105%.

Take `CCN(Cc1ccncc1)C(=O)NCCCSC` [CBK155125]: the viability at 28.5 h, 10 µM came out at 88.8%.

`O=S(=O)(NCc1ccc(C(F)(F)F)cc1)c1cccs1` [CBK043744]: the viability at 28.5 h, 10 µM came out at 94.5%.

For `CCNC(=O)C1(Cc2ccccc2-c2ccccc2)CCN(C(=O)c2csc(C)c2)CC1` [CBK285698], the viability at 28.5 h, 10 µM was 93.3%.

Regarding `CC(C)(C)OC(=O)N1CCC(N(CCCO)Cc2ccccn2)CC1` [CBK304246], the viability at 28.5 h, 10 µM stood at 95.1%.

As to `Cc1ccc(N2CCCC2=O)cc1S(=O)(=O)NC(c1ccccc1)c1ccccc1` [CBK286348], the viability at 28.5 h, 10 µM was 85.6%.

Regarding `O=C1NC(=O)C(CCCCN2CCCc3ccccc32)N1` (stereo not shown) [CBK143965], the viability at 28.5 h, 10 µM was 98.3%.

Turning to `O=C(CCn1cnc2ccccc21)N1CCC(c2ccncc2)CC1` [CBK283522], the viability at 28.5 h, 10 µM came to 102%.

Take `Cc1nnc(SCc2cc(=O)[nH]c(N3CCN(c4ccccc4F)CC3)n2)s1` [CBK270017]: the viability at 28.5 h, 10 µM was 97.8%.

As to `Cc1nc(C)n(CCCNc2cc(C(C)C)nc3ccnn23)n1` [CBK307497], the viability at 28.5 h, 10 µM was 79.7%.

For `Oc1cccc(-c2nccnc2N2CCN(c3ccncc3)CC2)c1` [CBK037079], the viability at 28.5 h, 10 µM turned out to be 113%.

Regarding `c1coc(CNc2c(-c3cccs3)nc3cnccn23)c1` [CBK283540], the viability at 28.5 h, 10 µM was found to be 93.2%.

On to `CC(=O)c1ccc(-c2cnc(N)c(N3CCN(C)CC3)n2)s1` [CBK063432], for which the viability at 28.5 h, 10 µM amounted to 94.4%.

As to `COc1cc(NC(=O)CCN2CCN(C)CC2)cc(OC)c1` [CBK264193], the viability at 28.5 h, 10 µM came to 92.5%.

Consider `CCCSc1ncc(Cl)c(C(=O)Nc2ccc(S(=O)(=O)N3CC(C)OC(C)C3)cc2)n1` (stereo not shown) [CBK269055], for which the viability at 28.5 h, 10 µM was 100%.

As for `CCc1ccc(CNC(=O)Cn2cnc(-c3ccc(CN4CCC(C)CC4)cc3)c2)cc1` [CBK158710T], the viability at 28.5 h, 10 µM stood at 100%.

With `CC1=CC(C)C(CN2CC34C=CC(O3)C(C(=O)O)C4C2=O)C(C)C1` (stereo not shown) [CBK287005], the viability at 28.5 h, 10 µM was 96.1%.

Turning to `CN(C)CCCNC(=O)c1cc(-c2ccc(Cl)cc2)[nH]n1` [CBK116564T], the viability at 28.5 h, 10 µM is 98.5%.

In the case of `C=CCn1c(=O)c(C(=O)NCCCO)c(O)c2ccccc21` [CBK262481], the viability at 28.5 h, 10 µM came to 83.9%.

As for `O=C(O)c1cccc(NS(=O)(=O)c2cccs2)c1` [CBK270068], the viability at 28.5 h, 10 µM amounted to 59.5%.

With `CCN1CC(C(=O)N2CCCC(CN(C)C)C2)CC1=O` (stereo not shown) [CBK282064], the viability at 28.5 h, 10 µM was determined as 106%.

With `O=CN1C2CCC1c1cnc3cc(-c4cccc(F)c4)nn3c1C2` (stereo not shown) [CBK282269], the viability at 28.5 h, 10 µM came out at 91.9%.

Regarding `CC(=O)Nc1cccc(C(=O)O)c1Cl` [CBK038814], the viability at 28.5 h, 10 µM was 94.1%.

Consider `O=C(CSc1nnnn1-c1cccnc1)NC1CCCCCC1` [CBK270092], for which the viability at 28.5 h, 10 µM was determined as 83.9%.

With `COC(=O)CNC(c1ccccc1)c1cc(Br)ccc1NC(C)=O` (stereo not shown) [CBK262976], the viability at 28.5 h, 10 µM turned out to be 119%.

As for `CC1CCCN(CC(C)(C)NC(=O)c2cc(C3CC3)on2)C1` (stereo not shown) [CBK281677], the viability at 28.5 h, 10 µM is 94.6%.

For the compound `O=C(O)CSc1n[nH]c(=O)[nH]c1=O` [CBK217819], the viability at 28.5 h, 10 µM was 94.8%.

For the compound `O=S(=O)(Nc1nnn[nH]1)c1ccc(Cl)c(Cl)c1` [CBK062387], the viability at 28.5 h, 10 µM was 106%.

Take `Cc1ccc(-c2c[nH]c([C@@H]3COCCN3Cc3c[nH]cn3)n2)cc1` [CBK289315]: the viability at 28.5 h, 10 µM stood at 94.8%.

Consider `CCc1nnc(NS(=O)(=O)c2ccc(NCc3cc(Cl)ccc3O)cc2)s1` [CBK200051], for which the viability at 28.5 h, 10 µM amounted to 100%.

For `O=C(Nc1cccc(-c2cccc(F)c2)c1)c1ccccc1Cn1cncn1` [CBK285735], the viability at 28.5 h, 10 µM turned out to be 87.4%.

For the compound `O=C1c2ccccc2CN1c1ccccc1` [CBK113189], the viability at 28.5 h, 10 µM was 95.9%.

For `Cn1ccc(C(=O)N2CCOC(c3nc(C(C)(C)C)n[nH]3)C2)cc1=O` (stereo not shown) [CBK305201], the viability at 28.5 h, 10 µM was determined as 106%.

Take `OCCN1CCN(CC(O)COCc2ccccc2)CC1` (stereo not shown) [CBK278262C]: the viability at 28.5 h, 10 µM worked out at 90.6%.

On to `Cc1c(C(=O)C2=C(O)C(=O)N(Cc3cccnc3)C2c2ccc(F)cc2)cnn1-c1ccccc1` (stereo not shown) [CBK266541], for which the viability at 28.5 h, 10 µM turned out to be 105%.

On to `CCn1c(COc2ccc(Cl)c3cccnc23)nnc1SC` [CBK266611], for which the viability at 28.5 h, 10 µM is 85.9%.

Turning to `COc1ccc(C2=NNC(=O)c3cc4sccc4n3C2)cc1` [CBK284205], the viability at 28.5 h, 10 µM is 93.1%.

Turning to `Cc1ccc2nsnc2c1NC(=O)CN1CCCCC1` [CBK269330], the viability at 28.5 h, 10 µM came out at 110%.

Consider `Cc1nc(C(F)(F)F)ccc1C(=O)N1CCCC1c1ccc[nH]1` (stereo not shown) [CBK306328], for which the viability at 28.5 h, 10 µM came out at 107%.

Turning to `Cc1cccc(CNCC2CCN(C(=O)OC(C)(C)C)CC2)n1` [CBK056713], the viability at 28.5 h, 10 µM amounted to 104%.

With `COc1ccc(CCN2C(=O)CC(N3CCN(c4ccccc4)CC3)C2=O)cc1OC` (stereo not shown) [CBK262354], the viability at 28.5 h, 10 µM was found to be 106%.

On to `C#Cc1cn([C@H]2C[C@@H](O)[C@@H](CO)O2)c(=O)[nH]c1=O` [CBK201207], for which the viability at 28.5 h, 10 µM turned out to be 87.8%.

Consider `CCCNC(=O)Nc1ccc(Cl)c(C(=O)O)c1` [CBK287009], for which the viability at 28.5 h, 10 µM stood at 85.6%.

For the compound `Cc1ccc(S(=O)(=O)N(CC(=O)NCC2CCCO2)c2ccccc2)cc1` (stereo not shown) [CBK264140], the viability at 28.5 h, 10 µM was 90.9%.

With `CCN(CC)CCNC(=O)c1c(O)c2ccccc2n(Cc2ccccc2)c1=O` [CBK291199], the viability at 28.5 h, 10 µM was determined as 113%.

Take `CCN(CC)CCN(Cc1cc2ccc(C)cc2[nH]c1=O)C(=O)Nc1ccc(Cl)cc1` [CBK068680]: the viability at 28.5 h, 10 µM was 84.9%.

In the case of `N#Cc1c(-c2ccccc2)cc(-c2ccccc2)nc1SCC(=O)O` [CBK131684], the viability at 28.5 h, 10 µM is 92.6%.

Turning to `COc1ccc(C(C)C)cc1-c1cnc2[nH]c(=O)n([C@H](CO)C(C)C)c2n1` [CBK064962], the viability at 28.5 h, 10 µM is 96.2%.

Turning to `Cc1cc(C)n(C(C)CC(=O)N2CCCCC2CCN2CCCC2)n1` (stereo not shown) [CBK282078], the viability at 28.5 h, 10 µM stood at 106%.

In the case of `Cc1noc(C)c1C(=O)N1CCC2(CC1)CC(=O)c1ccc(OCc3ccccc3)c(C)c1O2` [CBK156506], the viability at 28.5 h, 10 µM stood at 97.4%.

With `CC1CCN(S(=O)(=O)c2ccc3c(c2)oc(=O)c2cc(S(=O)(=O)N4CCC(C)CC4)ccc23)CC1` [CBK266314], the viability at 28.5 h, 10 µM turned out to be 100%.

As for `O=C1CC(N2CCN(Cc3ccc4c(c3)OCO4)CC2)C(=O)N1c1ccc(Br)cc1` (stereo not shown) [CBK074544], the viability at 28.5 h, 10 µM came to 89.9%.

With `Cc1ccc(Nc2ncc(C(=O)NCCCN3CCN(c4cccc(Cl)c4)CC3)c3ccccc23)cc1Cl` [CBK291251], the viability at 28.5 h, 10 µM turned out to be 90.1%.

For the compound `COc1ccc(-c2cc(C(=O)NCC(F)(F)F)cnc2-c2ccc(Cl)cc2)cn1` [CBK036698], the viability at 28.5 h, 10 µM is 103%.

As for `Cc1cccc(-c2nc(CN3CCOCC3)cs2)c1` [CBK270299], the viability at 28.5 h, 10 µM was found to be 103%.

For the compound `Cc1nc(NCc2ccc(C(F)(F)F)cc2)nc(N2CCOCC2)n1` [CBK023863], the viability at 28.5 h, 10 µM amounted to 91.9%.

For `Cn1ncc2c(NCCN3CCOC3=O)nc(C(C)(C)C)nc21` [CBK307511], the viability at 28.5 h, 10 µM was found to be 75.3%.

Turning to `O=S1(=O)CCN(Cc2cn(-c3ccc(-c4ccccc4)cc3)nn2)CC1` [CBK113105], the viability at 28.5 h, 10 µM was 95.4%.

As to `CC(C)(C)S(=O)(=O)c1ccc2nc3c(n2c1)CCCC3` [CBK006753], the viability at 28.5 h, 10 µM amounted to 94.9%.

With `O=C(CCOc1ccccc1F)Nc1cnc(-c2ccc(F)cc2)c(-c2ccsc2)n1` [CBK036897], the viability at 28.5 h, 10 µM was 99.7%.

On to `CC(=O)Nc1ccc(S(=O)(=O)Nc2ccc(C(=O)Nc3ccc(F)cc3)cc2)cc1` [CBK050401], for which the viability at 28.5 h, 10 µM came out at 111%.

Regarding `CC1(C)CC(=O)C2=C(C1)Nc1ncnn1C2c1ccccc1F` (stereo not shown) [CBK266446], the viability at 28.5 h, 10 µM was found to be 88%.

Regarding `CC(=O)c1c(C)nc2nc(-c3ccncc3)nn2c1C` [CBK288552], the viability at 28.5 h, 10 µM was 106%.

Staying with this series, now noted: human, hela cells, % viability, bulk resorufin, single well.
On to `CCOC(=O)C1(c2ccccc2)CCN(C(=O)Cc2ccc(Cl)c(Cl)c2)CC1` [CBK132175], for which the viability at 28.5 h, 10 µM turned out to be 113%.

Take `COc1ccc(Cn2nc(C(=O)NCc3ccco3)c3ccccc32)cc1` [CBK047883]: the viability at 28.5 h, 10 µM came out at 63.3%.

The values above are taken from paper PMC12040169 (PLOS Biology, 2025).
